Experimental data: PMC6858373 (Scientific Reports, 2019)
Where a name gives a salt, the structure may show the parent alone. Read-outs that look alike come from different tables or passages of the source.

Experiments:
[1] = molecular target: full-length P. pyralis luciferase (Photinus pyralis, UniProt P08659, K549A/L550V/N119G/N50D/S548I); format: cell-based
[2] = molecular target: T1, FGF14:Nav1.6 C-tail complex (Homo sapiens, UniProt Q92915+Q9UQD0); assay: Split-luciferase complementation assay (LCA) in Clone V double stable HEK293 cells; format: cell-based
T1 construct: polymerase chain reaction (PCR) amplification of the FGF14 open reading frame (nt 1–855); C-terminal fragment of Nav1.6 (amino acids 1763–1976) fused with CD4ΔC-tail (amino acids 1–395); expressed in transfected cells
T1 sequence (Q92915 1-252 isoform Q92915-2): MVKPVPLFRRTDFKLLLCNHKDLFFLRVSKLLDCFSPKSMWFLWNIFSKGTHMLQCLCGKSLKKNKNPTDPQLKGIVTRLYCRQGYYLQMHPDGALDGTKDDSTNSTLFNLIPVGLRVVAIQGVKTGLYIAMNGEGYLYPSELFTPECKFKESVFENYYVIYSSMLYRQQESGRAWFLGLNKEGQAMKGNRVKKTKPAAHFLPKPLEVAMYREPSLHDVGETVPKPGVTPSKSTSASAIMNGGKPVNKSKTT
T1 sequence (Q9UQD0 1763-1976 limits assumed): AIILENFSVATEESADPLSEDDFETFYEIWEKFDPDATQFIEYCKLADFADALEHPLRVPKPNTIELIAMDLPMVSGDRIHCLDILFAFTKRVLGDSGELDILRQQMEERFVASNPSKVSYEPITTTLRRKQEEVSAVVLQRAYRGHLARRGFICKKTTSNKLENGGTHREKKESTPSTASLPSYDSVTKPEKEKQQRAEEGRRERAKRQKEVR

[3] = CC_NCI screening, full-length luciferase counter-screen luminescence, normalized to on-plate 0.3% DMSO controls
[4] = CC_NCI screening, full-length luciferase counter-screen, normalized to on-plate 0.3% DMSO controls
[5] = CC_NCI screening, LCA luminescence, biological replicate Set 1, normalized to on-plate 0.3% DMSO controls (n=16 per plate)
[6] = CC_NCI screening, LCA luminescence, biological replicate Set 2, normalized to on-plate 0.3% DMSO controls (n=16 per plate)
[7] = CC_NCI screening, LCA, biological replicate Set 1, normalized to on-plate 0.3% DMSO controls
[8] = CC_NCI screening, LCA, biological replicate Set 2, normalized to on-plate 0.3% DMSO controls
[9] = CC_NCI screening, average of Set 1 and Set 2, normalized to 0.3% DMSO controls
[10] = CC_NCI screening, normalized to on-plate 0.3% DMSO controls
[11] = CC_NCI screening, biological replicate Set 1, normalized to on-plate 0.3% DMSO controls
[12] = CC_NCI screening, biological replicate Set 1, normalized to on-plate 0.3% DMSO controls (n=16 per plate)
[13] = CC_NCI screening, biological replicate Set 2, normalized to on-plate 0.3% DMSO controls
[14] = CC_NCI screening, biological replicate Set 2, normalized to on-plate 0.3% DMSO controls (n=16 per plate)
[15] = average of Set 1 and Set 2, normalized to 0.3% DMSO controls

full-length P. pyralis luciferase, sequence (P08659 whole entry N50D/N119G/S548I/K549A/L550V, looked up): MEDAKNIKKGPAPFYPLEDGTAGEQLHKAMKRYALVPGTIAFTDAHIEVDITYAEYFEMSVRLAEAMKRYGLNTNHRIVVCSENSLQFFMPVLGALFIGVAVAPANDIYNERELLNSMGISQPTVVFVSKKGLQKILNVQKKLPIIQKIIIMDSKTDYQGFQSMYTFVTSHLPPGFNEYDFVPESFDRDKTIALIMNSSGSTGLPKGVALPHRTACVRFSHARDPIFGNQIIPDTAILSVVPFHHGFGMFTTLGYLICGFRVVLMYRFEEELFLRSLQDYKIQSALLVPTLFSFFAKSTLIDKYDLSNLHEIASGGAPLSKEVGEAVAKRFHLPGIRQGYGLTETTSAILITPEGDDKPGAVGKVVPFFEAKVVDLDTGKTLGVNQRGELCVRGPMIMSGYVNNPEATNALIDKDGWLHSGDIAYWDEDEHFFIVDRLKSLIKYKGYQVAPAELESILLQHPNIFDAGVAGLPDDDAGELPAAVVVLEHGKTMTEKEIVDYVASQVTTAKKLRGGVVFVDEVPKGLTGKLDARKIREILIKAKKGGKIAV

Compound	Luciferase Assay % Lum [1, 3]	Luciferase Assay Z-score [1, 4]	Toxicity Assay % Fluor (Clone V cells; human, 16 h, 30 µM)	Toxicity Assay Z-score (Clone V cells; human, 16 h, 30 µM)	Split Luciferase Assay % Lum Set 1 [2, 5]	Split Luciferase Assay %Lum Set 2 [2, 6]	Split Luciferase Assay Z-score Set 1 [2, 7]	Split Luciferase Assay Z-score Set 2 [2, 8]	Split Luciferase Assay %Lum Avg [2, 9]	Toxicity Assay % Fluor (Clone V cells)	Toxicity Assay Z-score (Clone V cells)	also measured
COc1cccc2c1C(=O)c1c(O)c3c(c(O)c1C2=O)C[C@@](O)(C(=O)CO)C[C@@H]3O[C@H]1C[C@H](N)[C@@H](O)[C@H](C)O1 [Epirubicin hydrochloride]	76.16%	-3.05	86.21%	-1.93	44.90%	45.77%	-4.45	-4.41	45.34%	–	–	–
COc1cccc2c1C(=O)c1c(O)c3c(c(O)c1C2=O)C[C@@](O)(C(C)=O)C[C@@H]3O[C@H]1C[C@H](N)[C@H](O)[C@H](C)O1 [Daunorubicin hydrochloride]	65.12%	-4.47	81.24%	-2.62	48.16%	61.38%	-4.19	-3.14	54.77%	–	–	–
COc1cc2nccc(Oc3ccc(NC(=O)C4(C(=O)Nc5ccc(F)cc5)CC4)cc3)c2cc1OC [Cabozantinib]	67.75%	-4.13	93.87%	-0.86	27.50%	27.05%	-5.86	-5.94	27.28%	–	–	–
O=P1(N(CCCl)CCCl)NCCCO1 (centres unmarked) [Cyclophosphamide]	–	–	–	–	–	–	–	–	–	–	–	Luciferase Assay % Lum [1]: 101.62%; Luciferase Assay Z-score [1]: 0.21; Toxicity Assay % Fluor (Clone V cells; human): 98.87%; Toxicity Assay Z-score (Clone V cells; human): -0.16; Split Luciferase Assay % Lum Set 1 [2]: 107.95%; Split Luciferase Assay %Lum Avg [2]: 112.75%; Split Luciferase Assay %Lum Set 2 [2]: 117.56%; Split Luciferase Assay Z-score Set 1 [2]: 0.64; Split Luciferase Assay Z-score Set 2 [2]: 1.43
O=[As]O[As]=O (centres unmarked) [Arsenic trioxide]	96.86%	-0.40	–	–	20.98%	29.13%	-6.39	-5.77	25.05%	84.44%	-2.18	–
Cc1cc(N2CCOCC2)cc2[nH]c(-c3c(NC[C@@H](O)c4cccc(Cl)c4)cc[nH]c3=O)nc12 [BMS-536924]	93.73%	-0.80	–	–	56.86%	40.57%	-3.49	-4.84	48.71%	86.04%	-1.95	–
DNA-PK INHIBITOR V	–	–	–	–	–	–	–	–	–	–	–	Luciferase Assay % Lum (full-length luciferase counter-screen) [1, 10]: 82.55%; Luciferase Assay Z-score (full-length luciferase counter-screen) [1, 10]: -2.23; Toxicity Assay % Fluor (CTB cell viability fluorescence) (Clone V cells): 115.08%; Toxicity Assay Z-score (CTB cell viability) (Clone V cells): 2.11; Split Luciferase Assay Z-score Set 1 [2, 11]: -0.59; Split Luciferase Assay % Lum Set 1 [2, 12]: 92.73%; Split Luciferase Assay Z-score Set 2 [2, 13]: -0.01; Split Luciferase Assay %Lum Set 2 [2, 14]: 99.87%; Split Luciferase Assay %Lum Avg [2, 15]: 96.30%
CC(/C=C/C(=O)NO)=C\[C@@H](C)C(=O)c1ccc(N(C)C)cc1 [TRICHOSTATIN A]	33.58%	-8.51	–	–	147.09%	94.67%	3.81	-0.43	120.88%	97.32%	-0.37	–
Cc1cccc(Nc2nc(-c3ccncc3)cs2)c1 [STF-62247]	83.43%	-2.12	–	–	23.16%	33.29%	-6.21	-5.43	28.22%	98.46%	-0.22	–
C=CCNC1=C2C[C@@H](C)C[C@H](OC)[C@H](O)[C@@H](C)/C=C(\C)[C@H](OC(N)=O)[C@@H](OC)/C=C\C=C(/C)C(=O)NC(=CC1=O)C2=O [Compound 17-AAG]	80.45%	-2.50	–	–	45.98%	41.61%	-4.37	-4.75	43.80%	88.49%	-1.61	–
CCN(CC)CCCC(C)Nc1nc(C)cc(Nc2ccc3nc(C)cc(N)c3c2)n1 (centres unmarked) [NSC23766]	–	–	–	–	–	–	–	–	–	–	–	Luciferase Assay Z-score (full-length luciferase counter-screen) [1, 10]: 0.79; Toxicity Assay % Fluor (CTB cell viability fluorescence) (Clone V cells): 111.37%; Toxicity Assay Z-score (CTB cell viability) (Clone V cells): 1.59; Split Luciferase Assay Z-score Set 1 [2, 11]: 0.12; Split Luciferase Assay % Lum Set 1 [2, 12]: 101.43%; Split Luciferase Assay Z-score Set 2 [2, 13]: -0.01; Split Luciferase Assay %Lum Set 2 [2, 14]: 99.87%; Split Luciferase Assay %Lum Avg [2, 15]: 100.65%
COc1cc2c(Oc3ccc4[nH]c(C)cc4c3F)ncnc2cc1OCCCN1CCCC1 [CEDIRANIB]	80.88%	-2.45	86.10%	-1.94	69.90%	57.22%	-2.43	-3.48	63.56%	–	–	–
CC(C)(C)c1nc(-c2cccc(NS(=O)(=O)c3c(F)cccc3F)c2F)c(-c2ccnc(N)n2)s1.CS(=O)(=O)O [Dabrafenib mesylate]	100.50%	0.06	–	–	126.43%	121.72%	2.14	1.77	124.07%	93.50%	-0.91	–
COC(=O)c1ccc2c(c1)NC(=O)/C2=C(\Nc1ccc(N(C)C(=O)CN2CCN(C)CC2)cc1)c1ccccc1 [BIBF-1120]	102.06%	0.26	89.46%	-1.47	119.91%	123.80%	1.61	1.94	121.85%	–	–	–
C[C@@H](N)[C@H]1CC[C@H](C(=O)Nc2ccncc2)CC1 [Compound Y-27632]	95.76%	-0.54	–	–	76.42%	74.90%	-1.91	-2.04	75.66%	96.21%	-0.53	–
